Values after ≈ are worked out from the molar mass of the structure shown. Like-named read-outs stand apart in the source and are kept apart here.
How the values were obtained:
Type in all cases: cell-based
[1] = system: Neisseria sicca ATCC 29256; assay: Antibiotic activity, microbroth dilution MIC
Fusarium virguliforme = assay: Antifungal activity, microbroth dilution MIC
[2] = system: Pseudomonas putida KT2440; assay: Antibiotic activity, microbroth dilution MIC
[3] = system: Staphylococcus aureus USA300 (methicillin-resistant); assay: Antibiotic activity, microbroth dilution MIC
fungal strains = assay: Growth inhibition, panel of fungal strains; conditions: result in words
[4] = system: Gram-negative (Proteobacteria) organisms; conditions: all tested Gram-negatives, result in words
[5] = system: Enterococcus faecalis U503 (vancomycin-resistant); assay: Antibiotic activity, microbroth dilution MIC
Saccharomyces cerevisiae = assay: Antifungal activity, microbroth dilution MIC
[6] = system: Bacillus subtilis strain 168; assay: Antibiotic activity, microbroth dilution MIC
Talaromyces stipitatus = assay: Antifungal activity, microbroth dilution MIC
[7] = system: Gram-positive (Firmicutes) bacteria; conditions: several Gram-positive bacteria, result in words
[8] = system: Listeria monocytogenes strain 4b F2365; assay: Antibiotic activity, microbroth dilution MIC
E. coli MC4100 = assay: Antibiotic activity, microbroth dilution MIC; conditions: 37° C. 12 h
[9] = system: Bacillus anthracis strain Sterne; assay: microbe, parasite or virus in culture
Aspergillus niger = assay: Antifungal activity, microbroth dilution MIC
[10] = microbroth dilution, 37° C. 12 h
[11] = microbroth dilution, 30° C. 36 h

C=C1NC(=O)CNC(=O)[C@H](CCCCN)NC(=O)[C@@]2(C)NC(=O)/C(=C/C)NC(=O)[C@@H]3CSC(=N3)[C@H](CC(N)=O)NC(=O)c3ccc(nc3[C@@H](C)NC(=O)[C@@H]3CCCN3C1=O)-c1nc(cs1)C1=N[C@@H](CS1)C(=O)NC(=C)c1nc(cs1)-c1nc(cs1)C1=N[C@H](CS1)C(=O)N[C@H](C(=O)O)CS2 [cyclothiazomycin C]
MIC ([1]; ATCC29256, 37° C. 12 h, read-out: MIC): > 64 µg/mL | MIC (Fusarium virguliforme; 60 h): > 64 µg/mL | MIC ([2]; KT2440, 37° C. 12 h, read-out: MIC): > 64 µg/mL | MIC ([3]; USA300, 12 h): 16 µg/mL (≈ 10.8 µM) | growth inhibitory action toward fungal strains (fungal strains): none was observed | activity against Gram-negative (Proteobacteria) organisms [4]: inactive | MIC ([5]; 12 h): 32 to 64 µg/mL (≈ 21.5 to 43 µM) | MIC (Saccharomyces cerevisiae; 36 h): > 64 µg/mL | MIC ([6]; 168, 37° C. 12 h, read-out: MIC): 4 µg/mL (≈ 2.69 µM) | MIC (Talaromyces stipitatus; 36 h): > 64 µg/mL | growth inhibitory action toward Gram-positive (Firmicutes) bacteria [7]: exhibited growth inhibitory action | MIC ([8]; 4BF2365, 37° C. 12 h, read-out: MIC): 16 µg/mL (≈ 10.8 µM) | MIC (E. coli MC4100; MC4100, Escherichia coli, read-out: MIC): > 64 µg/mL | MIC ([9]; 12 h): 1 µg/mL (≈ 0.673 µM) | MIC (Aspergillus niger; 36 h): > 64 µg/mL

cyclothiazomycin B [reference compound]
MIC ([1]; 37° C. 12 h): >64 µg/mL | MIC (Fusarium virguliforme; microbroth dilution, 30° C. 60 h): 64 µg/mL | MIC ([2]; 37° C. 12 h): >64 µg/mL | MIC [3, 10]: 4 µg/mL | growth inhibitory action toward fungal strains (fungal strains): little to no activity | activity against Gram-negative (Proteobacteria) organisms [4]: little to no activity | MIC [5, 10]: 32 µg/mL | MIC (Saccharomyces cerevisiae; [11]): 64 µg/mL | MIC ([6]; 37° C. 12 h): 2 µg/mL | MIC (Talaromyces stipitatus; [11]): 64 µg/mL | MIC ([8]; 37° C. 12 h): 8 µg/mL | MIC (E. coli MC4100; Escherichia coli): 64 µg/mL | MIC [9, 10]: 1 µg/mL | MIC (Aspergillus niger; [11]): >64 µg/mL

Source: patent publication US20170227545A1, “REACTIVITY-BASED SCREENING FOR NATURAL PRODUCT DISCOVERY” (THE BOARD OF TRUSTEES OF THE UNIVERSITY OF ILLINOIS, priority 2014, published 2017)
